The text below walks through data of US7772383B2, “Chemical PCR: Compositions for enhancing polynucleotide amplification reactions” (The Trustees of Princeton University, priority 2002, dated 2010).

The test system of data set [1] is 50% GC DNA. Nature of the data set: Predicted cosolvent-induced Tm depression of DNA. It counts as physicochemical. The following applies: 1.0M 1,5-pentanediol, 0.7M 1,6-hexanediol, linearity not verified. On the procedure:
The compounds utilized in the first phase (testing using 1.0M 1,5-pentanediol and 0.7M 1,6-hexanediol at temperatures between 46 and 62° C.) were chosen on the basis of the following rationale. The optimal additive for a low temperature PCR reaction is one that lowers the melting temperature of DNA as much as possible while minimally compromising polymerase activity. 1,5-Pentanediol and 1,6-hexanediol are both powerful DNA melting agents. In addition, it was found in the 62° C. activity studies that the rate of activity decline with concentration of 1,5-pentanediol was roughly equivalent to that of 1,2-butanediol, despite the fact that the former is a much stronger DNA denaturant. 1.0M 1,5-pentanediol and 0.7M 1,6-hexanediol are predicted to lower the Tm of a 50% GC DNA by approximately the same amount: 19° C.

Data set [2] has as its system bovine brain glycolipid transfer protein (GTP) cDNA (660 bp). Nature of the data set: PCR amplification of GTP cDNA with diol additives, standard cycling. It counts as biochemical. The following applies: GTP; for Potency: 95° C. denaturing, 72° C. extension, normalized maximum densitometric volume of target band: 1,5-Pentanediol = 1; for Effective range: concentration interval over which densitometric volume of target band is at least 50% of maximum volume. As to the method:
(§1) Amplification reactions were carried out under the following general conditions. Those skilled in the art will appreciate, however, that to the extent that the conditions (set forth in this application) required for specific experiments described in this example were inconsistent with the following general conditions, limited exceptions to the following general conditions were made The general conditions were as follows: 10 Mm Tris-HCl (Ph 8.8), 50 Mm KCl, 1.5 Mm MgCl2, 0.01% (w/v) gelatin, 0.2 Um primers, 0.06 ng/ul template, 0.2 Mm each Dntp, 0.04 U/ul Taq polymerase. The templates used were bovine brain N-WASP cDNA (1518 bp), a 996 bp segment of human myeloid leukocyte c-jun cDNA, a 511 bp segment of human prostate-specific membrane antigen (PSM) cDNA, and bovine brain glycolipid transfer protein (GTP) cDNA (660 bp). cDNA synthesis was carried out using the FIRST-STRAND® RT-PCR kit from Stratagene on the respective mRNAs purchased from Clontech. All amplification reactions for gene were carried out using a single master batch of cDNA. Taq polymerase and dNTPs were obtained from Stratagene. Primers were obtained from Genosys. Primer melting temperatures (Tms) were calculated using the Genosys oligo calculator program. The sequences of the primers were as follows.
(§2) Polymerase chain reactions for the N-WASP gene were conducted on a ROBOCYCLER® Gradient 40 thermal cycler from Stratagene using 100 ul solutions in 600 ul thin-walled tubes. For expediency, amplification of c-jun, PSM and GTP was carried out in a ROBOCYCLER® Gradient 96 thermal cycler from Stratagene using 50 ul solutions in 200 ul thin-walled tubes. Prior to Taq polymerase addition, a hotstart protocol was carried out that consisted of an initial cycle of 95° C. for 5 minutes (11) to ensure complete first-strand separation, followed by a cycle of 54° C. for 5 minutes. Amplifications were run for 30 cycles. […] Extension was done at 72° C. for periods depending on target length: 2 minutes for N-WASP, 1.5 minutes for c-jun and GTP, and 1 minute for PSM. Annealings were carried out either at fixed concentrations of additives using temperature gradients of 38-56° C. for N-WASP and 44-58° C. for the other targets, or at varying concentrations of additives using fixed temperatures of 41° C. for N-WASP, 50° C. for c-jun and PSM, and 54° C. for GTP.
(§3) Amplification products were analyzed by agarose gel electrophoresis on 0.8% agarose gels in which 20 ul reaction products were loaded with 4 ul loading buffer. Gels were stained with ethidium bromide, visualized on a UV transilluminator (Fisher), and documented by photography. Densitometric quantitation of amplification products was carried out using IMAGE SCANNER® and IMAGE MASTER® software from Amersham Pharmacia. Background correction was done using the software's rolling disc method.
Investigations into the PCR enhancing capabilities of diol cosolvents were carried out using GTP as the primary template. […] The standard protocol for annealing temperature and concentration gradient screening was again followed. […] These cosolvents were thus omitted from further studies. The optimal annealing temperatures for the remaining compounds were: ethylene glycol, 1,2-propanediol, 1,3-propanediol and cis-1,2-cyclopentanediol—58° C.; 1,2-butanediol—54° C.; 1,3-butanediol and 1,4-butanediol—[…]; 2,4-pentanediol, 1,5-pentanediol, 1,6-hexanediol and MPD—56° C.

Data set [3] has as its target T1, Taq polymerase (Thermus aquaticus, UniProt P19821).
T1 construct: purchased Stratagene
Nature of the data set: Taq polymerase activity assays at low temperature in the presence of additives. Type of data set: biochemical. The note with it: 1.0M 1,5-pentanediol, 0.7M 1,6-hexanediol; for Activity of Taq polymerase: normalized to activity of control at 62° C.; for Activation: change in Taq activity versus control. On the procedure:
The measured polymerase activity, then, is in fact a function of two variables—temperature and additive concentration. The plot of measured activity versus temperature and additive concentration is a two-dimensional surface. While a truly comprehensive search for maximal polymerase activity would entail screening this entire surface, the number of experiments required to do so would of course be impractical. Therefore, polymerase activity was measured first as a function of temperature in the absence of additives and at one given, high additive concentration. The temperature that yielded the maximum activity of the polymerase at that concentration was then targeted for concentration gradient studies.
First, polymerase activity assays were carried out in the absence of additives and in the presence of 1.0M 1,5-pentanediol and 0.7M 1,6-hexanediol at temperatures between 46 and 62° C. Next, polymerase activity was studied at 53° C. in the presence of concentration gradients of 1,5-pentanediol, 2-pyrrolidone, sulfolane and tetramethylene sulfoxide. The concentrations tested were: 1,5-pentanediol: 1.0, 1.3, 1.5, 2.25, 3.0 and 3.5M; 2-pyrrolidone: 1.25, 1.5, 2.0 and 3.9M; sulfolane: 1.0, 1.5, 2.0 and 2.75M, tetramethylene sulfoxide: 1.0, 1.5, 2.0 and 3.0M.

The subject of data set [4] is GC-rich segment of crab satellite DNA. The note with it: literature (Varadaraj and Skinner, 1994); cited from earlier work.
Data set [5] concerns 996 bp segment of human myeloid leukocyte c-jun cDNA. Nature of the data set: PCR amplification of c-jun cDNA with diol additives, standard cycling. Type of data set: biochemical. The note with it: c-jun. As to the method: as §1, §2, §3
(§4) With PSM, 1,2-propanediol, 1,2-butanediol, 1,3-butanediol, 1,4-butanediol and glycerol were tested; with c-jun, ethylene glycol and 1,3-propanediol were also tested in addition to these compounds. […] The following additive concentrations were tested using these annealing temperatures: 1,2-propanediol—0.5, 0.8, 1.1, 1.4, 1.7 and 2.0M; 1,2-butanediol—0.1, 0.3, 0.5, 0.6, 0.7 and 0.8M; 1,3-butanediol—0.1, 0.3, 0.5, 0.6, 0.9, 1.1, 1.2M; 1,4-butanediol—0.1 to 1.1M in 0.2M intervals; 1,5-pentanediol—0.1-0.6M in 0.1M intervals; glycerol—0.5 to 1.9M in 0.2M intervals, and 2.2M.

Data set [6] deals with 511 bp segment of human prostate-specific membrane antigen (PSM) cDNA. Put plainly: PCR amplification of PSM cDNA with diol additives, standard cycling. The following applies: PSM. Type of data set: biochemical. As to the method: as §1, §2, §3, §4
The conditions of data set [7]: when functional; general statement on prior use; cited from earlier work.

SMILES strings stand for the structures.

T1 sequence (P19821 whole entry): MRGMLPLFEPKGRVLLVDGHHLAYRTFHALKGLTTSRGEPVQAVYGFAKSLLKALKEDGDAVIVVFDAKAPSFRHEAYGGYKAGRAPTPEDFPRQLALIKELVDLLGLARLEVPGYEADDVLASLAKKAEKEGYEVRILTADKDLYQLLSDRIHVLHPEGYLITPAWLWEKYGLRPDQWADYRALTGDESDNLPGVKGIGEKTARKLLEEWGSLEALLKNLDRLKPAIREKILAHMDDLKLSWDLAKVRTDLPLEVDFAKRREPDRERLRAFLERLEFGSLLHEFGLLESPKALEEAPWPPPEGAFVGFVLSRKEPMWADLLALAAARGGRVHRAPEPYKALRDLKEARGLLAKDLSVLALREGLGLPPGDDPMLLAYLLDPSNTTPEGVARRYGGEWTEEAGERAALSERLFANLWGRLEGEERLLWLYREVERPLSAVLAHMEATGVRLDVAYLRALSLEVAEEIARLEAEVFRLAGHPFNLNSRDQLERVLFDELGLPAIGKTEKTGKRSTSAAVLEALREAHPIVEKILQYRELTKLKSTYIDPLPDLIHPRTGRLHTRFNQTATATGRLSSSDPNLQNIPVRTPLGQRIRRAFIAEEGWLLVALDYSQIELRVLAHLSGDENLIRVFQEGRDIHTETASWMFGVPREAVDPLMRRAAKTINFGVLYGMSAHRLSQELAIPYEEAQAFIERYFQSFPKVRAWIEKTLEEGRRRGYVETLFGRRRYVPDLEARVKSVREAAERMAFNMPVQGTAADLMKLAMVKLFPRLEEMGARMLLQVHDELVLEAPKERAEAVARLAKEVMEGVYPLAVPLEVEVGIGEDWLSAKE

With `OCCCCCCO` [1,6-Hexanediol], in data set [1], the “lowering of the Tm of a 50% GC DNA” value is about 19 °C. Also, the Potency in data set [2] was 0.80. Further, in data set [2], the “Effective range” value is 0.13 to 0.29 M. For the same molecule, the “Activity of Taq polymerase” value in data set [3] (47° C.) is given as 0.24; in data set [3] (48° C.) it was 0.36; in data set [3] (49° C.), 0.57; in data set [3] (50° C.), 0.60; in data set [3] (51° C.), 0.60; in data set [3] (52° C.), 0.64. Also, the entries for the “Activity of Taq polymerase” value in data set [3] (53° C.), in data set [3] (54° C.) and in data set [3] (55° C.) were 0.64, 0.60 and 0.51, respectively. The Activation in data set [3] (47° C.) is recorded as −27%; in data set [3] (48° C.), −12%; in data set [3] (49° C.), “+16%”; in data set [3] (50° C.) it was “+20%”; in data set [3] (51° C.), “+13%”; in data set [3] (52° C.) it was “+25%”. Besides, the Activation entry in data set [3] (53° C.) was “+12%”; in data set [3] (54° C.), −2%; in data set [3] (55° C.) it was −27%.
In the case of `OCC(O)CO` [Glycerol, reference compound], the “enhancement of crab satellite DNA amplification relative to that provided by DMSO” value in data set [4] is “less than 25%”. Moreover, the “Effective range” value lay within 0.50 to 1.25 M in data set [5] (concentration interval over which densitometric volume of target band is at least 50% of maximum volume), 0.26 to 1.17 M in data set [2] and 1.10 to 1.63 M in data set [6] (concentration interval over which densitometric volume of target is at least 50% of maximum). The results for the Potency in data set [5] (normalized maximum densitometric volume of target band: 1,5-Pentanediol = 1), in data set [2] and in data set [6] (normalized maximum densitometric volume of target band: 1,3-Butanediol = 1) were 0.13, 0.28 and 0.22, respectively. Moreover, the Specificity in data set [6] (best specificity (densitometric volume of target as percent of total volume) over the effective range) is given as 83%. The “concentrations at which a positive effect on PCR is usually found” value in data set [7] was 5-15%.
